In patent US4912215A, “Q-1047 Substances” (Yamanouchi Pharmaceutical Co., Ltd., priority 1989, dated 1990):

Legend:
[1] = Basic, neutral or acidic nature; format: physicochemical
[2] = Solubility; format: physicochemical; settings: for Solubility in dioxane, toluene, benzene, chloroform: toluene (printed tolueno)
[3] = Superoxide anion scavenging activity (method of McCord and Fridovich, xanthine/xanthine oxidase, ferricytochrome C); format: biochemical; settings: for concentration dependency of superoxide anion scavenging activity: FIG. 30, FIG. 31, FIG. 32; for SOD-like activity of the detected/isolated substance: TLC-detected substance in preparation examples, test not detailed; for IC50 / superoxide anion scavenging activity (in words): pH 7.8, 25° C.; for IC50: xanthine/xanthine oxidase, ferricytochrome C, read-out: concentration of the compound which showed one unit of SOD activity (50% reduction of increase in absorbance at 550 nm); for superoxide anion scavenging activity (in words): same reaction system
Procedure: The compounds according to the invention were tested for superoxide anion scavenging activity by the method of McCord and Fridovich [J. Biol. Chem., 244 (22), 6049-6055 1969) . Thus, xanthine oxidase was added to 5 ×10^-2 M potassium phosphate buffer (pH 7.8) containing 1 ×10^-4 M EDTA, 1×10^-5 M ferricytochrome C and 5×10^-5 M xanthine to give a reaction system in which the rate of increase in absorbance at 550 nm as determined at 25° C. amounted to 0.025 per minute.

[4] = test system: Puromycin aminonucleoside (PAN) nephrosis rats; assay: Effect on puromycin nephritis (PAN nephrosis rats); format: in vivo, Male Sprague-Dawley rats; settings: 10 mg/kg i.p. daily
Procedure: Male Sprague-Dawley rats (weighing 180-200 g) were used. Puromycin aminonucleoside (PAN) nephrosis rats were prepared by single intraperitoneal administration of 50 mg/kg of PAN. Throughout the experiment, the rats were fed in metabolic cages and received a solid diet for rats and tap water ad libitum. Urine samples were collected at timed intervals for 24 hours and assayed for protein content. The test drug, suspended in a 0.5% methylcellulose solution, was intraperitoneally administered daily. After the administration period, kidneys were excised, and thin sections were prepared therefrom in the conventional manner and examined microscopically.

[5] = Antioxidant activity (decolorization of DPPH radical); format: biochemical; settings: for reduction of absorbance due to DPPH at 517 nm: 0.1 mM DPPH in ethanol, 30 minutes; for antioxidant activity of the detected/isolated substance: TLC-detected or isolated substance in preparation examples, test not detailed
Procedure: Generally, substances called antioxidants can decolorize 1,1-diphenyl-2-picrylhydrazyl (DPPH), which is a stable radical.
Thus, DPPH was dissolved in ethanol to a concentration of 0.1 mM, the test compound was admixed with the solution and, 30 minutes later, the absorbance was determined at 517 nm.

[6] = Acute toxicity in mice; settings: mouse, in vivo, ip

| Structure (SMILES) | Basic, neutral or acidic [1] | Solubility in dioxane, chloroform, ethyl acetate, acetonitrile [2] | Solubility in toluene, benzene, ethanol, methanol [2] | Solubility in water, hexane [2] | concentration dependency of superoxide anion scavenging activity [3] | SOD-like activity of the detected/isolated substance [3] | IC50 [3] [µM] | urinary protein level ([4]; PAN 50 mg/kg i.p. single, compared with PAN alone on 7th day) | kidney tissue examination (glomerular changes or abnormalities) ([4]; compared with PAN alone) | superoxide anion scavenging activity (in words) [3] | Solubility in dioxane, toluene, benzene, chloroform [2] | Solubility in ethyl acetate, acetonitrile, acetone, ethanol, methanol [2] | reduction of absorbance due to DPPH at 517 nm [5] | antioxidant activity of the detected/isolated substance [5] | LD50 [6] [mg/kg] |
| --- | --- | --- | --- | --- | --- | --- | --- | --- | --- | --- | --- | --- | --- | --- | --- |
| CC1=CC(C)C(OC2CCC(O)C(C)O2)C2=CC(=O)C=C(NC(=O)C(C)C(=O)C(C)C1)C2=O (stereo not drawn) [Q-1047-A] | Neutral | Soluble | sparingly | insoluble | dependent on the concentration | SOD-like activity | 5.6 |  |  |  |  |  |  |  |  |
| CC1=CC(C)C(OC2CCC(O)C(C)O2)C2=CC(=O)C=C(NC(=O)C(C)C(=O)C(C)C1)C2=O (stereo not drawn) [Q-1047-B] | Neutral | Soluble | sparingly | insoluble | dependent on the concentration | SOD-like activity | 35 |  |  |  |  |  |  |  |  |
| CC1=CC(C)C(O)C2=CC(=O)C=C(NC(=O)C(C)C(=O)C(C)C1)C2=O (stereo not drawn) [Q-1047H-A-A] | Neutral | Soluble | sparingly | insoluble | concentration-dependent | SOD-like activity | 25 | almost no increase in urinary protein was observed | such changes or abnormalities were lesser in extent and lower in incidence | have superoxide anion scavenging activity |  |  |  |  |  |
| CC1=CC(C)C(O)C2=CC(=O)C=C(NC(=O)C(C)C(=O)C(C)C1)C2=O (stereo not drawn) [Q-1047H-A-B] | Neutral | Soluble | sparingly | insoluble | concentration-dependent | SOD-like activity | 22 |  |  | have superoxide anion scavenging activity |  |  |  |  |  |
| CC1=CC(C)C(O)c2cc(O)cc(c2O)NC(=O)C(C)C(=O)C(C)C1 (stereo not drawn) [Q-1047H-R-A] | Neutral |  |  | insoluble |  |  |  |  |  |  | sparingly | Soluble | reduced the absorbance due to DPPH | antioxidant activity |  |
| CC1=CC(C)C(OC2CCC(O)C(C)O2)c2cc(O)cc(c2O)NC(=O)C(C)C(=O)C(C)C1 (stereo not drawn) [Q-1047R-A] | Neutral |  |  | insoluble |  |  |  |  |  |  | sparingly | Soluble | reduced the absorbance due to DPPH | antioxidant activity | > 500 |
